Data taken from patent publication US10961197B2, “Metal chelators for imaging, therapeutics, and bioanalysis” (THE BOARD OF TRUSTEES OF THE UNIVERSITY OF ILLINOIS, priority 2016, dated 2021).

Legend:
Format in all cases: physicochemical
[1] = EDTA challenge assay of kinetic inertness (luminescence over time, 5 nM complex, 1 mM EDTA); conditions: for stability in EDTA solution: for 2 days
Method: FIG. 2 is a graph of the relative kinetic stability as measured by the luminescence signal intensity at ca. 545 nm (for Tb(III) complexes) or 620 nm (for Eu(III) complexes) for various dilute aqueous solutions (5 nM) of the indicated metal complexes in TBS buffer containing 1 mM EDTA.
FIG. 3 is a graph of the relative kinetic stability as measured by the luminescence signal intensity at ca. 545 nm (for Tb(III) complexes) or 620 nm (for Eu(III) complexes) for various dilute aqueous solutions (5 nM) of the indicated metal complexes in TBS buffer containing 1 mM EDTA.
The cyclic TTHA-based complexes Tb-12a and Eu-12b were still more than 40% in emissive after 48 h.
(§1) Complete metallation, as judged by formation of green Tb luminescence, occurred in less than 15 min. The resulting complex was then diluted to a final concentration of 5 nM in buffer solution that contained a much higher concentration (1 mM) of a competing chelator, ethylene diamine tetraacetic acid (EDTA). By observing the metal luminescence over time, the kinetic inertness of compound iii relative to that of other known chelators was assessed.

[2] = Quantum yield of emission of lanthanide complexes in water / aqueous buffer; conditions: Tb complex
Method: A cyclohexyl analog of the metal chelator was prepared with methylenecarboxylate pendant groups and a sensitizing chromophore (carbostyril 124) appended to one of the central nitrogens (compound iii). The synthesis of compound iii was remarkably efficient (8 steps, 45% overall yield). Moreover, it can be scaled up and altered to prepare different derivatives, as evidenced by the incorporation of a single chromophore into the structure. Given its position in the molecule, the amide oxygen between the cyclohexyl nitrogen and the chromophore may coordinate to a bound Tb ion. This coordination in turn would allow for efficient sensitization of metal luminescence and result in a high quantum yield of emission. […] The quantum yield of compound iii exceeded 50% in water, making it among the most efficient luminescent Tb complexes known.
All of the complexes prepared show characteristic lanthanide emission spectra. UV-Vis absorption spectra closely matched those of previously reported carbostyril-sensitized complexes. […] The efficient emission and lack of bound waters support the hypothesis that inner substitution positions the sensitizer such that it remains coordinated to the metal center.

[3] = Metallation of chelator with Tb in buffer at 1:1 ratio, judged by green Tb luminescence; conditions: 1:1 ratio in buffer
Method: as §1

Row | Compound | stability in EDTA solution [1] | quantum yield [2] | time to equilibrate with the EDTA solution ([1]; Tb complex) [h] | time to complete metallation [3] | time to complete dissociation from Tb(III) [1]
1 | O=C(O)CN1CCN(CC(=O)O)CCN(CC(=O)O)CCN(CC(=O)O)CC1 [DOTA, 1,4,7,10-tetraazacyclododecane-1,4,7,10-tetraacetic acid] | remains essentially stable | – | – | – | –
2 | DOTAm | remains essentially stable | – | – | – | –
3 | Cc1cc(=O)[nH]c2c(NC(=O)CN(CCN(CC(=O)O)[C@@H]3CCCC[C@H]3N(CC(=O)O)CC(=O)O)[C@H]3CCCC[C@@H]3N(CC(=O)O)CC(=O)O)cccc12 [Compound iii] | remains essentially stable | exceeded 50% | 2 to 3 | less than 15 min | –
4 | O=C(O)CN(CCN(CC(=O)O)CC(=O)O)CCN(CC(=O)O)CC(=O)O [DTPA, diethylamine triamine pentaacetic acid] | – | – | – | – | ca. 10 h
